Earlier results as cited in patent publication US6531115B1, “Analgesic and refreshing herbal composition and a process for preparing the same” (Council of Scientific & Industrial Research, priority 2001, dated 2003).

tested on: artificial toothache; details: rabbits having artificial toothache

Row | Compound | sedative effect on toothache
1 | Oc1ccccc1 [Phenol] | strongest action
2 | CC1CCC(C(C)C)C(O)C1 (stereo not drawn) [menthol] | weak
3 | CC12CCC(CC1)C(C)(C)O2 [eucalyptol] | weak
4 | CC12CCC(CC1=O)C2(C)C (stereo not drawn) [camphor] | no sedative effect

tested on: toothache; details: in vivo

Row | Compound | pain-relieving activity
5 | Cc1ccc(C(C)C)c(O)c1 [Thymol] | very weak
6 | CCO [alcohol] | almost no effect
